Patent EP0044212B1, “Herbicidal o-alkylsulfonyloxy- and o-alkylsulfonylamino-benzenesulfonamides” (E.I. DU PONT DE NEMOURS AND COMPANY, priority 1980, dated 1982)

Columns and labels:
Soybean = experiment: Test C pre-emergence on Fallsington silt loam soil; type: in vivo, soybeans; conditions: 0.03 kg/ha, 28 days
Source text: (§1) The high herbicidal activity of two of the compounds from within the scope of the invention is evident from the results obtained in this test. The experiment concerned pre-emergence applications on soil. The containers used were 25 cm diameter plastic pots filled with Fallsington silt loam. One set of pots was planted to weeds, the seeds of which were uniformly mixed with the top 1.2 cm layer of soil. The species selected were: johnsongrass (Sorghum halepense), barnyardgrass (Echinochloa crusgalli), crabgrass (Digitaria sanguinalis), giant foxtail (Setaria faberii), velvetleaf (Abutilon theophrasti), jimsonweed (Datura stramonium), mustard (Brassica arvensis), and pigweed (Amaranthus retroflexus). Another set of pots were planted to the following crops with from one to four species per pot: corn (planting depth 3.7 cm), cotton, soybeans, sunflower, Clinton oats, wheat, Black Valentine beans, rice, sorghum, peas, flax, and peanuts (all at 2.5 cm depth), cucumbers, cabbage, alfalfa, safflower, sugarbeets, tomato, spinach, barley, and Kentucky bluegrass (all at 1.2 cm depth). Immediately after planting, the test chemical was applied to the soil surfaces dissolved in a non-phytotoxic solvent. One pot from the weed phase and one of each of the crop species were left untreated for the purpose of comparison. […]

Oats = experiment: Test C pre-emergence on Fallsington silt loam soil; type: in vivo, Clinton oats; conditions: 0.03 kg/ha, 28 days
Source text: as §1

Ky. bluegrass = experiment: Test C pre-emergence on Fallsington silt loam soil; type: in vivo, Kentucky bluegrass; conditions: 0.03 kg/ha, 28 days
Source text: as §1

Grasses = experiment: Test C pre-emergence on Fallsington silt loam soil; type: in vivo, johnsongrass, barnyardgrass, crabgrass, giant foxtail; conditions: 28 days
Source text: The high herbicidal activity of two of the compounds from within the scope of the invention is evident from the results obtained in this test. The experiment concerned pre-emergence applications on soil. The containers used were 25 cm diameter plastic pots filled with Fallsington silt loam. One set of pots was planted to weeds, the seeds of which were uniformly mixed with the top 1.2 cm layer of soil. The species selected were: johnsongrass (Sorghum halepense), barnyardgrass (Echinochloa crusgalli), crabgrass (Digitaria sanguinalis), giant foxtail (Setaria faberii), velvetleaf (Abutilon theophrasti), jimsonweed (Datura stramonium), mustard (Brassica arvensis), and pigweed (Amaranthus retroflexus). Another set of pots were planted to the following crops with from one to four species per pot: corn (planting depth 3.7 cm), cotton, soybeans, sunflower, Clinton oats, wheat, Black Valentine beans, rice, sorghum, peas, flax, and peanuts (all at 2.5 cm depth), cucumbers, cabbage, alfalfa, safflower, sugarbeets, tomato, spinach, barley, and Kentucky bluegrass (all at 1.2 cm depth). Immediately after planting, the test chemical was applied to the soil surfaces dissolved in a non-phytotoxic solvent. One pot from the weed phase and one of each of the crop species were left untreated for the purpose of comparison. The treated and untreated pots were promptly watered with approximatley 4 mm of simultated rainfall and then held in a greenhouse for several weeks. Visual weed and crop response ratings were made 28 days after treatment utilizing the rating system as described above for Test A. The data are given in Table C.

Jimsonweed = experiment: Test G broadleaf herbicidal properties, overall spray; type: in vivo; conditions: 0.015 kg/ha, 22 days after treatment
Experimental: (§2) Approximately 12 soybean plants were grown in a 25 cm. diameter plastic pot. In another pot of equal size the following broadleaf plant species were grown: sugarbeets, velvetleaf, Sesbania, Cassia, mustard, morningglory, alfalfa, jimsonweed, and cocklebur. The plant foliage and surrounding soil were treated with the test chemical dissolved in a non-phytotoxic solvent as an overall spray at the rate of 0.015 kg/ha, when the plants were 17 days old. Visual ratings of herbicidal effects were made 22 days after treatment utilizing the rating system described for Test A.

Mustard = experiment: as above; type: in vivo; conditions: 0.015 kg/ha, 22 days after treatment
Experimental: as §2

Sugarbeets = experiment: as above; type: in vivo; conditions: 0.015 kg/ha, 22 days after treatment
Experimental: as §2

Wild Oats = experiment: Test D pre-/post-emergence weed control in cereals; type: in vivo, Avena fatua; conditions: 20 days
Source text: (§3) Two ten-inch in diameter plastic pans lined with polyethylene liners were filled with prepared Fallsington slit loam soil. One pan was planted with seeds of wheat (Triticum aestivum), barley (Hordeum vulgarel, wild oats (Avena fatua), downy brome (Bromus tectorum), cheatgrass (Bromus secalinus), blackgrass (Alopecurus myosuroides), annual bluegrass (Poa annual, green foxtail (Setaria viridis), quack grass (Agropyron repens), Italian ryegrass (Lolium multiflorum) and ripgut brome (Bromus rigidus). The other pan was planted with seeds of Russian thistle (Salsola kali), tansy mustard (Descuraina pinnata), smartweed (Polygonum pensylvanicum), tumble mustard (Sisymbrium altissium) kochia (Kochia scoparia), shepherd's purse (Capsella bursa-pastoris), Matricaria inodora, black nightshade (Solanum nigrum), yellow rocket (Barbarea vulgaris), wild mustard (Brassica kaber) and wild buckwheat (Polygonum convolvulus). The above two pans were treated pre-emergence. At the same time two pans in which the above plant species were growing were treated post-emergence. Plant height at the time of treatment ranged from 1-15 cm depending on plant species.
(§4) The compounds applied were diluted with a non-phytotoxic solvent and sprayed over-the-top of the pans. An untreated control and a solvent alone control were included for comparison. All treatments were maintained in the greenhouse for 20 days at which time the treatments were compared to the controls and the effects visually rated. The recorded data, presented in Table D, indicate that certain compounds from within the scope of the invention have utility for pre- and/or post-emergence weed control in cereal crops such as wheat and barley.

Downy Brome = experiment: Test D pre-/post-emergence weed control in cereals; type: in vivo, Bromus tectorum; conditions: 20 days
Source text: as §3, §4

Cheatgrass = experiment: Test D pre-/post-emergence weed control in cereals; type: in vivo, Bromus secalinus; conditions: 20 days
Source text: as §3, §4

Blackgrass = experiment: Test D pre-/post-emergence weed control in cereals; type: in vivo, Alopecurus myosuroides; conditions: 0.015 kg/ha, 20 days
Source text: as §3, with “Plant height at the time of treatment ranged from 1-15 cm depending on plant species.” left out
(§5) The compounds applied were diluted with a non-phytotoxic solvent and sprayed over-the-top of the pans. […] The recorded data, presented in Table D, indicate that certain compounds from within the scope of the invention have utility for pre- and/or post-emergence weed control in cereal crops such as wheat and barley.

Annual Bluegrass = experiment: Test D pre-/post-emergence weed control in cereals; type: in vivo, Poa annual; conditions: 20 days
Source text: as §3, §4

Green Foxtail = experiment: Test D pre-/post-emergence weed control in cereals; type: in vivo, Setaria viridis; conditions: 20 days
Source text: as §3, §4

Italian Ryegrass = experiment: Test D pre-/post-emergence weed control in cereals; type: in vivo, Lolium multiflorum; conditions: 20 days
Source text: as §3, §4

Russian Thistle = experiment: Test D pre-/post-emergence weed control in cereals; type: in vivo, Salsola kali; conditions: 20 days
Source text: as §3, §4

Tansy Mustard = experiment: Test D pre-/post-emergence weed control in cereals; type: in vivo, Descuraina pinnata; conditions: Pre-Emergence; 0.015 kg/ha; 20 days
Source text: as §3, with “Plant height at the time of treatment ranged from 1-15 cm depending on plant species.” left out
as §5

Tumble Mustard = experiment: Test D pre-/post-emergence weed control in cereals; type: in vivo, Sisymbrium altissium; conditions: 20 days
Source text: as §3, §4

Kochia = experiment: Test D pre-/post-emergence weed control in cereals; type: in vivo, Kochia scoparia; conditions: 20 days
Source text: as §3, §4

Black Nightshade = experiment: Test D pre-/post-emergence weed control in cereals; type: in vivo, Solanum nigrum; conditions: 0.015 kg/ha, 20 days
Source text: as §3, with “Plant height at the time of treatment ranged from 1-15 cm depending on plant species.” left out
as §5

Yellow Rocket = experiment: Test D pre-/post-emergence weed control in cereals; type: in vivo, Barbarea vulgaris; conditions: 0.06 kg/ha, 20 days
Source text: as §3, with “Plant height at the time of treatment ranged from 1-15 cm depending on plant species.” left out
as §5

Wild Mustard = experiment: Test D pre-/post-emergence weed control in cereals; type: in vivo, Brassica kaber; conditions: 20 days
Source text: as §3, §4

Wild Buckwheat = experiment: Test D pre-/post-emergence weed control in cereals; type: in vivo, Polygonum convolvulus; conditions: Pre-Emergence; 0.015 kg/ha; 20 days
Source text: as §3, with “Plant height at the time of treatment ranged from 1-15 cm depending on plant species.” left out
as §5

SMILES: COc1cc(OC)nc(NC(=O)NS(=O)(=O)c2ccccc2OS(C)(=O)=O)n1 [Compound 1, N-[(4,6-Dimethoxypyrimidin-2-yl)aminocarbonyl]-2-hydroxybenzenesulfonamide, methanesulfonate]
- Soybean response rating (Soybean): 4G, 2lH
- Oats response rating (Oats): 4G
- Ky. bluegrass response rating (Ky. bluegrass): 7G
- Grasses response rating (Grasses; 0.0035 kg/ha): 0
- Grasses response rating (Grasses; 0.0075 kg/ha): 0
- Grasses response rating (Grasses; 0.015 kg/ha): 2G

SMILES: CCCS(=O)(=O)Oc1ccccc1S(=O)(=O)NC(=O)Nc1nc(C)nc(OC)n1 [Compound 39, 2-hydroxy-N-[(4-methoxy-6-methyl-1,3,5-triazin-2-yl)aminocarbonyl]benzenesulfonamide, 1-propanesulfonate]
- Jimsonweed response rating (Jimsonweed): 0
- Mustard response rating (Mustard): 10C
- Sugarbeets response rating (Sugarbeets): 9G

SMILES: CCCS(=O)(=O)Oc1ccccc1S(=O)(=O)NC(=O)Nc1nc(OC)cc(OC)n1 [Compound 36, N-[(4,6-dimethoxypropimidin-2-yl)aminocarbonyl]-2-hydroxybenzenesulfonamide, 1-propanesulfonate]
- Wild Oats response rating (Wild Oats; Post-Emergence, 0.015 kg/ha): 0
- Wild Oats response rating (Wild Oats; Post-Emergence, 0.06 kg/ha): 0
- Wild Oats response rating (Wild Oats; Pre-Emergence, 0.015 kg/ha): 0
- Wild Oats response rating (Wild Oats; Pre-Emergence, 0.06 kg/ha): 0
- Downy Brome response rating (Downy Brome; Post-Emergence, 0.015 kg/ha): 0
- Downy Brome response rating (Downy Brome; Post-Emergence, 0.06 kg/ha): 3G
- Downy Brome response rating (Downy Brome; Pre-Emergence, 0.015 kg/ha): 3G
- Downy Brome response rating (Downy Brome; Pre-Emergence, 0.06 kg/ha): 6G
- Cheatgrass response rating (Cheatgrass; Post-Emergence, 0.015 kg/ha): 1G
- Cheatgrass response rating (Cheatgrass; Pre-Emergence, 0.015 kg/ha): 7G
- Cheatgrass response rating (Cheatgrass; Pre-Emergence, 0.06 kg/ha): 10C
- Blackgrass response rating (Blackgrass; Post-Emergence): 2G
- Blackgrass response rating (Blackgrass; Pre-Emergence): 6G
- Annual Bluegrass response rating (Annual Bluegrass; Post-Emergence, 0.015 kg/ha): 2G
- Annual Bluegrass response rating (Annual Bluegrass; Post-Emergence, 0.06 kg/ha): 3G
- Annual Bluegrass response rating (Annual Bluegrass; Pre-Emergence, 0.015 kg/ha): 6G
- Green Foxtail response rating (Green Foxtail; Post-Emergence, 0.015 kg/ha): 1G
- Green Foxtail response rating (Green Foxtail; Post-Emergence, 0.06 kg/ha): 2G
- Green Foxtail response rating (Green Foxtail; Pre-Emergence, 0.015 kg/ha): 2G
- Italian Ryegrass response rating (Italian Ryegrass; Post-Emergence, 0.015 kg/ha): 0
- Italian Ryegrass response rating (Italian Ryegrass; Post-Emergence, 0.06 kg/ha): 0
- Italian Ryegrass response rating (Italian Ryegrass; Pre-Emergence, 0.015 kg/ha): 1G
- Italian Ryegrass response rating (Italian Ryegrass; Pre-Emergence, 0.06 kg/ha): 3G
- Russian Thistle response rating (Russian Thistle; Post-Emergence, 0.015 kg/ha): 0
- Russian Thistle response rating (Russian Thistle; Post-Emergence, 0.06 kg/ha): 2G
- Russian Thistle response rating (Russian Thistle; Pre-Emergence, 0.015 kg/ha): 0
- Russian Thistle response rating (Russian Thistle; Pre-Emergence, 0.06 kg/ha): 1G
- Tansy Mustard response rating (Tansy Mustard): 2G
- Tumble Mustard response rating (Tumble Mustard; Post-Emergence, 0.015 kg/ha): 10C
- Tumble Mustard response rating (Tumble Mustard; Post-Emergence, 0.06 kg/ha): 10C
- Tumble Mustard response rating (Tumble Mustard; Pre-Emergence, 0.015 kg/ha): 5G
- Kochia response rating (Kochia; Post-Emergence, 0.015 kg/ha): 0
- Kochia response rating (Kochia; Post-Emergence, 0.06 kg/ha): 0
- Kochia response rating (Kochia; Pre-Emergence, 0.015 kg/ha): 0
- Black Nightshade response rating (Black Nightshade; Post-Emergence): 2G
- Black Nightshade response rating (Black Nightshade; Pre-Emergence): 4G
- Yellow Rocket response rating (Yellow Rocket; Post-Emergence): 10C
- Yellow Rocket response rating (Yellow Rocket; Pre-Emergence): 10C
- Wild Mustard response rating (Wild Mustard; Post-Emergence, 0.015 kg/ha): 10C
- Wild Mustard response rating (Wild Mustard; Post-Emergence, 0.06 kg/ha): 10C
- Wild Mustard response rating (Wild Mustard; Pre-Emergence, 0.06 kg/ha): 10C
- Wild Buckwheat response rating (Wild Buckwheat): 3G
